According to ChEMBL document CHEMBL1697731, “Cheminformatics analysis of assertions mined from literature that describe drug-induced liver injury in different species” (Chem Res Toxicol, 2010):

Tests used:
[1] = tested on: Hepatotoxicity; test: Literature-mined compound from Fourches et al multi-species drug-induced liver injury (DILI) dataset, effect in humans; conditions: human
[2] = tested on: Hepatotoxicity; test: Literature-mined compound from Fourches et al multi-species drug-induced liver injury (DILI) dataset, effect in rodents; conditions: rodentia
[3] = tested on: Hepatotoxicity; test: Literature-mined compound from Fourches et al multi-species drug-induced liver injury (DILI) dataset, effect in non-rodents

O=S(=O)([O-])Oc1ccc(C(c2ccc(OS(=O)(=O)[O-])cc2)c2ccccn2)cc1.[Na+].[Na+] [SODIUM PICOSULFATE]
Hepatotoxicity [1]: drug-induced liver injury reported | Hepatotoxicity [2]: no drug-induced liver injury reported | Hepatotoxicity [3]: no drug-induced liver injury reported

HEPARIN
Hepatotoxicity [1]: drug-induced liver injury reported | Hepatotoxicity [2]: drug-induced liver injury reported | Hepatotoxicity [3]: drug-induced liver injury reported

C[C@H](CCC(=O)O)[C@H]1CC[C@H]2[C@@H]3C(=O)C[C@@H]4CC(=O)CC[C@]4(C)[C@H]3CC(=O)[C@]12C [DEHYDROCHOLIC ACID]
Hepatotoxicity [1]: no drug-induced liver injury reported | Hepatotoxicity [2]: drug-induced liver injury reported | Hepatotoxicity [3]: no drug-induced liver injury reported

c1ccc([C@H]2CN3CCSC3=N2)cc1 [LEVAMISOLE]
Hepatotoxicity ([1]; Liver): drug-induced liver injury reported | Hepatotoxicity ([2]; Liver): drug-induced liver injury reported | Hepatotoxicity ([3]; Liver): no drug-induced liver injury reported

O=C1OC(c2ccc(O)cc2)(c2ccc(O)cc2)c2ccccc21 [PHENOLPHTHALEIN]
Hepatotoxicity [1]: no drug-induced liver injury reported | Hepatotoxicity [2]: drug-induced liver injury reported | Hepatotoxicity [3]: no drug-induced liver injury reported

COc1cc(NC(C)CCCN)c2ncccc2c1 (configuration not stated) [PRIMAQUINE]
Hepatotoxicity [1]: drug-induced liver injury reported | Hepatotoxicity [2]: drug-induced liver injury reported | Hepatotoxicity [3]: no drug-induced liver injury reported

C[C@]12CCC(=O)C=C1CC[C@@H]1[C@@H]2[C@@H](O)C[C@@]2(C)[C@H]1CC[C@]2(O)C(=O)CO [HYDROCORTISONE]
Hepatotoxicity [1]: drug-induced liver injury reported | Hepatotoxicity [2]: drug-induced liver injury reported | Hepatotoxicity [3]: drug-induced liver injury reported

Nc1ccc(S(=O)(=O)Nc2ncccn2)cc1 [SULFADIAZINE]
Hepatotoxicity ([1]; Liver): drug-induced liver injury reported | Hepatotoxicity ([2]; Liver): no drug-induced liver injury reported | Hepatotoxicity ([3]; Liver): no drug-induced liver injury reported

GLATIRAMER ACETATE
Hepatotoxicity [1]: drug-induced liver injury reported | Hepatotoxicity [2]: drug-induced liver injury reported | Hepatotoxicity [3]: no drug-induced liver injury reported

CNCCC=C1c2ccccc2CCc2ccccc21 [NORTRIPTYLINE]
Hepatotoxicity ([1]; Liver): drug-induced liver injury reported | Hepatotoxicity ([2]; Liver): no drug-induced liver injury reported | Hepatotoxicity ([3]; Liver): no drug-induced liver injury reported

Oc1c(I)cc(Cl)c2cccnc12 [CLIOQUINOL]
Hepatotoxicity [1]: no drug-induced liver injury reported | Hepatotoxicity [2]: drug-induced liver injury reported | Hepatotoxicity [3]: no drug-induced liver injury reported

O=C1NC(=O)C(c2ccccc2)(c2ccccc2)N1 [PHENYTOIN]
Hepatotoxicity ([1]; Liver): drug-induced liver injury reported | Hepatotoxicity ([2]; Liver): drug-induced liver injury reported | Hepatotoxicity ([3]; Liver): drug-induced liver injury reported

CO[C@@]1(NC(=O)C2SC(=C(C(N)=O)C(=O)O)S2)C(=O)N2C(C(=O)O)=C(CSc3nnnn3C)CS[C@@H]21 (some centres not stated) [CEFOTETAN]
Hepatotoxicity [1]: drug-induced liver injury reported | Hepatotoxicity [2]: no drug-induced liver injury reported | Hepatotoxicity [3]: no drug-induced liver injury reported

O=C([O-])c1c(Cl)c(Cl)c(Cl)c(Cl)c1-c1c2cc(I)c(=O)c(I)c-2oc2c(I)c([O-])c(I)cc12.[Na+].[Na+] [ROSE BENGAL SODIUM]
Hepatotoxicity [1]: no drug-induced liver injury reported | Hepatotoxicity [2]: drug-induced liver injury reported | Hepatotoxicity [3]: no drug-induced liver injury reported

C[C@@H]1CN(c2c(F)c(N)c3c(=O)c(C(=O)O)cn(C4CC4)c3c2F)C[C@H](C)N1 [SPARFLOXACIN]
Hepatotoxicity [1]: drug-induced liver injury reported | Hepatotoxicity [2]: no drug-induced liver injury reported | Hepatotoxicity [3]: no drug-induced liver injury reported

Cc1[nH]c(/C=C2\C(=O)Nc3ccccc32)c(C)c1CCC(=O)O [ORANTINIB]
Hepatotoxicity [1]: drug-induced liver injury reported | Hepatotoxicity [2]: no drug-induced liver injury reported | Hepatotoxicity [3]: no drug-induced liver injury reported

CC(COc1ccccc1)NC(C)C(O)c1ccc(O)cc1 (configuration not stated) [ISOXSUPRINE]
Hepatotoxicity [1]: no drug-induced liver injury reported | Hepatotoxicity [2]: drug-induced liver injury reported | Hepatotoxicity [3]: no drug-induced liver injury reported

N[C@@H](Cc1cc(I)c(Oc2ccc(O)c(I)c2)c(I)c1)C(=O)O [LIOTHYRONINE]
Hepatotoxicity [1]: drug-induced liver injury reported | Hepatotoxicity [2]: drug-induced liver injury reported | Hepatotoxicity [3]: no drug-induced liver injury reported

O=C([O-])O.[Na+] [SODIUM BICARBONATE]
Hepatotoxicity ([1]; Liver): no drug-induced liver injury reported | Hepatotoxicity ([2]; Liver): drug-induced liver injury reported | Hepatotoxicity ([3]; Liver): drug-induced liver injury reported

Nc1ccn(C[C@@H](CO)OCP(=O)(O)O)c(=O)n1.O.O [CIDOFOVIR]
Hepatotoxicity [1]: drug-induced liver injury reported | Hepatotoxicity [2]: no drug-induced liver injury reported | Hepatotoxicity [3]: no drug-induced liver injury reported

CO[C@@]1(NC(=O)C(C(=O)O)c2ccc(O)cc2)C(=O)N2C(C(=O)O)=C(CSc3nnnn3C)CO[C@@H]21 (some centres not stated) [MOXALACTAM]
Hepatotoxicity [1]: drug-induced liver injury reported | Hepatotoxicity [2]: no drug-induced liver injury reported | Hepatotoxicity [3]: no drug-induced liver injury reported

CC(=O)Nc1nnc(S(N)(=O)=O)s1 [ACETAZOLAMIDE]
Hepatotoxicity [1]: drug-induced liver injury reported | Hepatotoxicity [2]: drug-induced liver injury reported | Hepatotoxicity [3]: drug-induced liver injury reported

CCn1nc(C(=O)O)c(=O)c2cc3c(cc21)OCO3 [CINOXACIN]
Hepatotoxicity [1]: drug-induced liver injury reported | Hepatotoxicity [2]: no drug-induced liver injury reported | Hepatotoxicity [3]: no drug-induced liver injury reported

CC(O)(CS(=O)(=O)c1ccc(F)cc1)C(=O)Nc1ccc(C#N)c(C(F)(F)F)c1 (configuration not stated) [BICALUTAMIDE]
Hepatotoxicity [1]: drug-induced liver injury reported | Hepatotoxicity [2]: no drug-induced liver injury reported | Hepatotoxicity [3]: no drug-induced liver injury reported

CCCCCc1cc(O)c2c(c1)OC(C)(C)[C@@H]1CCC(C)=C[C@@H]21 [DRONABINOL]
Hepatotoxicity [1]: drug-induced liver injury reported | Hepatotoxicity [2]: drug-induced liver injury reported | Hepatotoxicity [3]: no drug-induced liver injury reported

CNC[C@H](O)[C@@H](O)[C@H](O)[C@H](O)CO [MEGLUMINE]
Hepatotoxicity [1]: drug-induced liver injury reported | Hepatotoxicity [2]: no drug-induced liver injury reported | Hepatotoxicity [3]: no drug-induced liver injury reported

Cn1c(CCCC(=O)O)nc2cc(N(CCCl)CCCl)ccc21 [BENDAMUSTINE]
Hepatotoxicity [1]: drug-induced liver injury reported | Hepatotoxicity [2]: no drug-induced liver injury reported | Hepatotoxicity [3]: no drug-induced liver injury reported

OC(O)C(Cl)(Cl)Cl [CHLORAL HYDRATE]
Hepatotoxicity ([1]; Liver): drug-induced liver injury reported | Hepatotoxicity ([2]; Liver): drug-induced liver injury reported | Hepatotoxicity ([3]; Liver): no drug-induced liver injury reported

CCCNC(=O)NS(=O)(=O)c1ccc(Cl)cc1 [CHLORPROPAMIDE]
Hepatotoxicity [1]: drug-induced liver injury reported | Hepatotoxicity [2]: drug-induced liver injury reported | Hepatotoxicity [3]: no drug-induced liver injury reported

Cc1c(C)c2c(c(C)c1O)CCC(C)(COc1ccc(CC3SC(=O)NC3=O)cc1)O2 (configuration not stated) [TROGLITAZONE]
Hepatotoxicity [1]: drug-induced liver injury reported | Hepatotoxicity [2]: drug-induced liver injury reported | Hepatotoxicity [3]: drug-induced liver injury reported

O=c1[nH]cc(Br)c(=O)[nH]1 [5-BROMOURACIL]
Hepatotoxicity [1]: no drug-induced liver injury reported | Hepatotoxicity [2]: drug-induced liver injury reported | Hepatotoxicity [3]: no drug-induced liver injury reported

CCOc1nc2cccc(C(=O)OC(C)OC(=O)OC3CCCCC3)c2n1Cc1ccc(-c2ccccc2-c2nnn[nH]2)cc1 (configuration not stated) [CANDESARTAN CILEXETIL]
Hepatotoxicity [1]: drug-induced liver injury reported | Hepatotoxicity [2]: drug-induced liver injury reported | Hepatotoxicity [3]: no drug-induced liver injury reported

CCC(c1ccccc1)c1c(O)c2ccccc2oc1=O (configuration not stated) [PHENPROCOUMON]
Hepatotoxicity [1]: drug-induced liver injury reported | Hepatotoxicity [2]: no drug-induced liver injury reported | Hepatotoxicity [3]: no drug-induced liver injury reported

CC(C)(C)NCC(O)c1cc(O)cc(O)c1 (configuration not stated) [TERBUTALINE]
Hepatotoxicity [1]: no drug-induced liver injury reported | Hepatotoxicity [2]: drug-induced liver injury reported | Hepatotoxicity [3]: drug-induced liver injury reported

CN1CCC(=C2c3ccccc3C=Cc3ccccc32)CC1 [CYPROHEPTADINE]
Hepatotoxicity [1]: drug-induced liver injury reported | Hepatotoxicity [2]: drug-induced liver injury reported | Hepatotoxicity [3]: no drug-induced liver injury reported

CCCCC1C(=O)N(c2ccccc2)N(c2ccc(O)cc2)C1=O (configuration not stated) [OXYPHENBUTAZONE ANHYDROUS]
Hepatotoxicity [1]: no drug-induced liver injury reported | Hepatotoxicity [2]: drug-induced liver injury reported | Hepatotoxicity [3]: no drug-induced liver injury reported

OCC(O)CO [GLYCERIN]
Hepatotoxicity [1]: drug-induced liver injury reported | Hepatotoxicity [2]: drug-induced liver injury reported | Hepatotoxicity [3]: drug-induced liver injury reported

COc1cc(C2Oc3cc([C@H]4Oc5cc(O)cc(O)c5C(=O)[C@@H]4O)ccc3OC2CO)ccc1O (some centres not stated) [SILIBININ]
Hepatotoxicity [1]: drug-induced liver injury reported | Hepatotoxicity [2]: drug-induced liver injury reported | Hepatotoxicity [3]: no drug-induced liver injury reported

CC/C(=C(/c1ccc(OCCN(C)C)cc1)c1cccc(O)c1)c1ccccc1 [DROLOXIFENE]
Hepatotoxicity [1]: no drug-induced liver injury reported | Hepatotoxicity [2]: drug-induced liver injury reported | Hepatotoxicity [3]: no drug-induced liver injury reported
